From patent publication US8846644B2, “Phosphate-containing nanoparticle delivery vehicle” (priority 2009, dated 2014)

Assay: Hydrophilicity test (dispersion)
Type: physicochemical

## CC(=O)O[C@H]1C(=O)[C@@]2(C)[C@H]([C@H](OC(=O)c3ccccc3)[C@]3(O)C[C@H](OC(=O)[C@H](O)[C@@H](NC(=O)c4ccccc4)c4ccccc4)C(C)=C1C3(C)C)[C@]1(OC(C)=O)CO[C@@H]1C[C@@H]2O [paclitaxel]
  dispersion (hydrophilicity): 0.4 µg/mL
